According to patent publication US12364696B2, “Treatment of autoimmune disease” (priority 2019, dated 2025):

Columns and labels:
[1] = tested on: folliculitis decalvans and tufted folliculitis; assay: Additional case studies (data not shown); type: in vivo, human; settings: sublingual
[2] = tested on: patients with alopecia areata; settings: oral tofacitinib 5 mg twice daily for 6 months; cited from earlier work
[3] = Pharmacokinetics of sublingual tofacitinib, plasma LC MS/MS; type: in vivo, human; settings: for concentration at 24 h: other: sublingual
Experimental: Blood samples were left to coagulate at room temperature for 20 minutes before centrifuging at 3500 rotations per minute for 15 minutes. The resulting separated plasma was extracted and stored at −20 degrees Celsius prior to processing using the liquid chromatography tandem mass spectrometry (LC MS/MS) method.
The mobile phase consisted of (A) 5 mM ammonium acetate pH 4 and (B) methanol. The gradient profile developed was: 0-2.0 min, 90% A, 10% B; 2.0-3.0 min, 30% A, 70% B; 3.0-4.0 min, 90% A, 10% B. A Shimadzu LC MS/MS-8050 triple quadrupole mass spectrometer (Shimadzu, Kyoto, Japan) was used to perform the mass spectrometry. MS/MS analysis was performed in positive ion mode using electrospray ionization conditions.

For C[C@@H]1CCN(C(=O)CC#N)C[C@@H]1N(C)c1ncnc2[nH]ccc12 [tofacitinib], the “Usefulness for treatment of folliculitis decalvans and tufted folliculitis” value [1] is listed as “useful”, the Response rate [2] is listed as 64.9% and the “Number of patients who achieved tmax at 0.5 hour” value ([3]; Week 28, last dose, 15 patients) is listed as “One”. The “Trace plasma levels prior to the last dose (range)” value ([3]; Week 28, pre-dose, 10 patient samples) was 0.5 to 10.0 ng/mL, the half-life ([3]; human, plasma, 5 mg, sublingual, Week 28 (FIG. 5b), read-out: Estimated elimination half-life (plasma concentration halving from 29.14 ng/ml to 14.6 ng/ml) (converted)) was roughly 11 h and the concentration at 24 h ([3]; human, plasma, 5 mg, Week 16, likely spuriously elevated by the nocte dose) was 7.39 ng/mL. The concentration at 24 h ([3]; human, plasma, 5 mg, Week 28, no nocte dose) was 0.28 ng/mL, the Tmax ([3]; human, plasma, sublingual, 5 mg tablet, read-out: Average time (tmax) to maximum plasma concentration) was 1 h and the Cmax ([3]; human, plasma, sublingual, 5 mg tablet, read-out: Maximum plasma concentration (Cmax), average) was 43.2 ng/mL.
